Measurements published in article PMC4749844, “Investigation of Calcium Channel Blockers as Antiprotozoal Agents and Their Interference in the Metabolism of Leishmania (L.) infantum” (Evidence-based Complementary and Alternative Medicine : eCAM, 2016).
Read-outs that look alike come from different tables or passages of the source.

Columns and labels:
T. cruzi epimastigotes = test system: T. cruzi epimastigotes; design: method as in PMID 9457486; conditions: in vitro; read-out: IC50 against T. cruzi epimastigotes; cited from earlier work
[1] = test system: L. (L.) infantum promastigotes; assay: Mitochondrial membrane potential, MitoTracker Red; assay type: cell-based, Leishmania (L.) infantum; conditions: for reduction of MitoTracker Red fluorescence levels relative to untreated parasites: 20 μM, 60 minutes, p < 0.05
Method: L. […] Then MitoTracker® Red CM-H2XROS (500 nM) was added and the incubation was continued for 40 minutes in the dark. […] Nitazoxanide (60 μg/mL) was used as a positive control and untreated promastigotes were used as negative control.

[2] = test system: L. (L.) infantum promastigotes; assay: Reactive oxygen species (ROS), H2DCF-DA; assay type: cell-based, Leishmania (L.) infantum; conditions: for regulation of ROS content compared to untreated parasites: amlodipine, fendiline 20 μM, 60 minutes
Method: L. (L.) infantum promastigotes (2 × 10^6 cells/well) were washed in HBSS medium and incubated with amlodipine or fendiline (20 μM) for 60 minutes at 24°C. To these cells 2′,7′-dichlorodihydrofluorescein diacetate (H2DCf-DA) was added (5 μM) and incubation was prolonged for 15 minutes. […] Nitazoxanide (60 μg/mL) was used as positive control and untreated promastigotes were used as negative control.

[3] = test system: L. (L.) infantum promastigotes; assay: Antileishmanial activity against promastigotes, MTT assay; assay type: cell-based, Leishmania (L.) infantum; conditions: 24 hours at 24°C, highest concentration 100 μM; for IC50: Leishmania infantum, read-out: IC50 ± SD, L. (L.) infantum promastigotes
Method: (§1) Promastigotes of L. (L.) amazonensis (WHO/BR/00/LT0016), L. (V.) braziliensis (MHO/BR/75/M2903), and L. (L.) infantum (MHOM/BR/1972/LD) [synonymous with L. (L.) chagasi] were maintained in M199 medium supplemented with 10% calf serum and 0.25% hemin at 24°C. L. (L.) infantum amastigotes were obtained from the spleen of infected hamster by differential centrifugation at the 60–70th days after infection. Macrophages were collected from the peritoneal cavity of BALB/c mice by washing with RPMI-1640 medium supplemented with 10% fetal calf serum and were maintained at 37°C in a 5% CO2 humidified incubator. Trypanosoma cruzi trypomastigotes (Y strain) were maintained in LLC-MK2 (ATCC CCL 7) cells using RPMI-1640 medium supplemented with 2% calf serum at 37°C in a 5% CO2 humidified incubator.
(§2) To determine the 50% inhibitory concentration (IC50) against Leishmania promastigotes, the drugs were dissolved in DMSO and diluted with M199 medium in 96-well microplates, with 100 μM as the highest concentration. Each drug was tested twice at eight concentrations prepared in twofold dilutions. Promastigotes were counted in a Neubauer hemocytometer and seeded at 1 × 10^6 parasites/well with a final volume of 150 μL. Controls with DMSO and without drugs were performed. Pentamidine was used as a standard drug. The plate was incubated for 24 hours at 24°C and the viability of promastigotes was verified by the MTT assay. Briefly, MTT (5 mg/mL) was dissolved in PBS, sterilized through 0.22 μm membrane and 20 μL/well was added, for 4 hours at 24°C. Promastigotes were incubated without compounds and used as a viability control. Formazan extraction was performed using 10% SDS for 18 hours (80 μL/well) at 24°C, and the optical density was determined in a Multiskan MS (UNISCIENCE) plate reader at 550 nm. The 100% viability was expressed based on the optical density of control promastigotes, after normalization. […] Plates were incubated at 37°C in a 5% CO2 humidified incubator for 24 hours. L. (L.) infantum amastigotes extracted from spleens and separated by differential centrifugation were added to macrophages at a ratio of 10 : 1 (amastigotes : macrophage). After 24 hours, extracellular parasites were removed by washing, fresh medium containing the drugs and controls was added, and the cells were incubated at 37°C for a period of 120 hours. Further medium changes with fresh drugs were carried out after 72 hours. At the end of the assay, the slides were stained with Giemsa and observed using light microscopy. Glucantime was used as a standard drug. The IC50 was determined by the number of infected macrophages in 400 cells.

[4] = test system: L. (L.) infantum intracellular amastigotes; assay: Activity against intracellular amastigotes in peritoneal macrophages, Giemsa staining and light microscopy; assay type: cell-based, Leishmania (L.) infantum; conditions: for IC50 ± SD, L. (L.) infantum amastigotes / IC50: intracellular amastigotes in BALB/c peritoneal macrophages, 120 hours; for IC50: read-out: IC50 ± SD, L. (L.) infantum amastigotes; for Selectivity Index (SI), L. (L.) infantum amastigotes: ratio between cytotoxicity to LLC-MK2 cells and antiparasitic activity
Method: as §1, §2

[5] = test system: L. (L.) amazonensis promastigotes; assay: Antileishmanial activity against promastigotes, MTT assay; assay type: cell-based, Leishmania (L.) amazonensis; conditions: 24 hours at 24°C, highest concentration 100 μM; for IC50: Leishmania amazonensis, read-out: IC50 ± SD, L. (L.) amazonensis promastigotes
Method: as §1, §2

[6] = test system: L. (V.) braziliensis promastigotes; assay: as above; assay type: cell-based, Leishmania (V.) braziliensis; conditions: 24 hours at 24°C, highest concentration 100 μM; for IC50: Leishmania, read-out: IC50 ± SD, L. (V.) braziliensis promastigotes
Method: as §1, §2

T. cruzi trypomastigotes = assay: Antitrypanosomal activity, MTT assay; assay type: cell-based, Trypanosoma cruzi; conditions: for IC50 ± SD, T. cruzi trypomastigotes / IC50: 24 hours at 37°C, highest concentration 100 μM; for IC50: read-out: IC50 ± SD, T. cruzi trypomastigotes; for Selectivity Index (SI), T. cruzi trypomastigotes: ratio between cytotoxicity to LLC-MK2 cells and antiparasitic activity
Method: as §1
To determine the IC50 against T. cruzi trypomastigotes, drugs were dissolved in DMSO and diluted with RPMI-1460 medium in 96-well microplates, with the highest concentration at 100 μM. Trypomastigotes obtained from LLC-MK2 cultures were counted in a Neubauer hemocytometer and seeded at 1 × 10^6 parasites/well in 96-well microplates. Test drugs were incubated for 24 hours at 37°C in a 5% CO2 humidified incubator and the viability of trypomastigotes was verified by the MTT assay as described above. Benznidazole was used as a standard drug.

[7] = Cytotoxicity in mammalian cells, MTT assay; assay type: cell-based; conditions: rhesus monkey, LLC-MK2 cells; 48 hours at 37°C; read-out: IC50 ± SD, LLC-MK2 cytotoxicity
Method: LLC-MK2 were seeded at 5 × 10^4 cells/well in 96-well microplates and incubated with drugs with 200 μM as the highest concentration, for 48 hours at 37°C in a 5% CO2 humidified incubator. The viability of the cells was determined by the MTT assay as described above. Control cells were incubated in the presence of DMSO and without drugs. Viability of 100% was expressed based on the optical density of control LLC-MK2 cells, after normalization. The Selectivity Index (SI) was given by the ratio between the cytotoxicity in LLC-MK2 cells and the antiparasitic activity.

[8] = test system: Leishmania spp. promastigotes; assay: Antileishmanial activity against promastigotes of all species tested, MTT assay; assay type: cell-based; conditions: range over the Leishmania species tested
Method: as §1
To determine the 50% inhibitory concentration (IC50) against Leishmania promastigotes, the drugs were dissolved in DMSO and diluted with M199 medium in 96-well microplates, with 100 μM as the highest concentration. Each drug was tested twice at eight concentrations prepared in twofold dilutions. Promastigotes were counted in a Neubauer hemocytometer and seeded at 1 × 10^6 parasites/well with a final volume of 150 μL. Controls with DMSO and without drugs were performed. Pentamidine was used as a standard drug. […]

[9] = test system: L. (L.) infantum promastigotes; conditions: not told
Method: L. (L.) infantum promastigotes were washed with PBS, deposited on a 96-well microplate (2 × 10^6 parasites/well) and incubated with SYTOX® Green (1 μM) for 15 minutes at 24°C [10]. Amlodipine and fendiline were added at 20 μM and the fluorescence was measured up to 60 minutes. The fluorescence intensity was determined using a fluorimetric microplate reader (FilterMax F5 Multi-Mode Microplate Reader-Molecular Devices) with excitation and emission wavelengths of 485 and 520 nm, respectively. Triton X-100 (0.1%) was used as positive control and untreated promastigotes were used as negative control.

L. (L.) amazonensis = test system: L. (L.) amazonensis; design: method as in PMID 9501844; conditions: read-out: IC50 against L. (L.) amazonensis; cited from earlier work
L. (L.) major = test system: L. (L.) major; design: method as in PMID 9501844; conditions: read-out: IC50 against L. (L.) major; cited from earlier work
[10] = Leishmania infantum, Peritoneal macrophage, in Mus musculus, 120 h

## CCOC(=O)C1=C(C)NC(C)=C(C(=O)OCC)C1c1ccccc1/C=C/C(=O)OC(C)(C)C [lacidipine]
T. cruzi epimastigotes
  IC50: 33 µM

## CC(=O)Oc1ccccc1C(=O)Nc1ncc([N+](=O)[O-])s1 [Nitazoxanide]
[1]; nitazoxanide 60 μg/mL, positive control
  effect on mitochondrial membrane potential (fluorescence intensity): strong reduction of fluorescence intensity
[2]; nitazoxanide 60 μg/mL
  regulation of ROS content compared to untreated parasites: significant upregulation of ROS

## Nc1cc(-c2ccncc2)c[nH]c1=O [Amrinone]
[3]
  IC50 ± SD, L. (L.) infantum promastigotes: ne^b
[4]
  IC50 ± SD, L. (L.) infantum amastigotes: ne^b
[5]
  IC50 ± SD, L. (L.) amazonensis promastigotes: ne^b
[6]
  IC50 ± SD, L. (V.) braziliensis promastigotes: ne^b
T. cruzi trypomastigotes
  IC50 ± SD, T. cruzi trypomastigotes: ne^b
T. cruzi trypomastigotes; listed as amrinone
  IC50 ± SD, T. cruzi trypomastigotes: inactive
[7]
  IC50 at 48 h: > 500 µM
[8]
  IC50: > 100 µM

## N=C(N)c1ccc(OCCCCCOc2ccc(C(=N)N)cc2)cc1 [Pentamidine]
[3]
  IC50: 1.06 ± 0.12 µM
[5]
  IC50: 1.14 ± 0.15 µM
[6]
  IC50: 0.69 ± 0.04 µM
[7]
  IC50 at 48 h: 23.5 ± 3.53 µM
[8]
  IC50: 0.69 to 1.14 µM

## Triton X-100
[9]
  plasma membrane permeability (SYTOX Green fluorescence): fully permeabilized parasites

## CCOC(=O)C1=C(COCCN)NC(C)=C(C(=O)OC)C1c1ccccc1Cl (stereo not drawn) [Amlodipine, amlodipine]
[1]
  reduction of MitoTracker Red fluorescence levels relative to untreated parasites: 7%
[2]; 20 μM
  ROS levels, fold higher compared to fendiline: ~3 fold
[2]; amlodipine 20 μM, nitazoxanide 60 μg/mL
  upregulation of ROS, fold higher than nitazoxanide: 1.99 fold
[2]; nitazoxanide 60 μg/mL
  regulation of ROS content compared to untreated parasites: intense and significant (p < 0.05) upregulation of ROS content
[9]
  plasma membrane permeability (SYTOX Green fluorescence): no interference on the plasma membrane permeability

## COC(=O)C1=C(C)NC(C)=C(C(=O)OC(C)C)C1c1cccc2nonc12 (stereo not drawn) [isradipine]
T. cruzi epimastigotes
  IC50: 20 µM

## Cc1cccc(C)c1NC(=O)CN1CCN(CCCC(c2ccc(F)cc2)c2ccc(F)cc2)CC1 [Lidoflazine, lidoflazine]
[3]
  IC50: 17.7 ± 0.93 µM
[4]; [10]
  IC50: 12 to 16 µM
[4]
  IC50: 16.3 ± 4.45 µM
  Selectivity Index (SI), L. (L.) infantum amastigotes: 6.54
[5]
  IC50: 11.5 ± 1.49 µM
[6]
  IC50: 14.5 ± 1.08 µM
T. cruzi trypomastigotes; Trypanosoma cruzi, 24 h
  IC50: 10.4 ± 1.87 µM
T. cruzi trypomastigotes
  Selectivity Index (SI), T. cruzi trypomastigotes: 10.25
[7]
  IC50 at 48 h: 107 ± 58 µM

## O=C(Cn1ccnc1[N+](=O)[O-])NCc1ccccc1 [Benznidazole]
T. cruzi trypomastigotes
  IC50: 440 ± 39.1 µM
T. cruzi trypomastigotes; Trypanosoma cruzi, 24 h
  IC50: 440 µM
[7]
  IC50 at 48 h: > 500 µM

## Nc1ccncc1 [4-aminopyridine]
L. (L.) amazonensis
  IC50: 46 µM
L. (L.) major
  IC50: > 400 µM

## CC(NCCC(c1ccccc1)c1ccccc1)c1ccccc1 (stereo not drawn) [Fendiline, fendiline]
[3]
  IC50: 16.1 ± 4.2 µM
[4]; [10]
  IC50: 12 to 16 µM
[4]
  IC50: 12.2 ± 1.74 µM
  Selectivity Index (SI), L. (L.) infantum amastigotes: 4.09
[5]
  IC50: 8.66 ± 1.27 µM
[6]
  IC50: 9.15 ± 0.78 µM
T. cruzi trypomastigotes; Trypanosoma cruzi, 24 h
  IC50: 12.1 ± 2.97 µM
T. cruzi trypomastigotes
  Selectivity Index (SI), T. cruzi trypomastigotes: 4.11
[7]
  IC50 at 48 h: 49.9 ± 8.16 µM
[1]
  reduction of MitoTracker Red fluorescence levels relative to untreated parasites: 18%
[2]; nitazoxanide 60 μg/mL
  regulation of ROS content compared to untreated parasites: intense and significant (p < 0.05) upregulation of ROS content
[9]
  plasma membrane permeability (SYTOX Green fluorescence): no interference on the plasma membrane permeability

## COCC(=O)O[C@]1(CCN(C)CCCc2nc3ccccc3[nH]2)CCc2cc(F)ccc2[C@@H]1C(C)C [Mibefradil, mibefradil]
[3]
  IC50: 3.6 ± 0.11 µM
[4]
  IC50 ± SD, L. (L.) infantum amastigotes: ne^b
[4]; listed as mibefradil
  IC50 ± SD, L. (L.) infantum amastigotes: lack of activity
[5]
  IC50: 2.23 ± 0.42 µM
[6]
  IC50: 2.75 ± 0.39 µM
T. cruzi trypomastigotes; Trypanosoma cruzi, 24 h
  IC50: 2.99 ± 0.43 µM
T. cruzi trypomastigotes
  Selectivity Index (SI), T. cruzi trypomastigotes: 4.01
[7]
  IC50 at 48 h: 12 ± 1.03 µM
